Data taken from US8530680B2, “System and method for controlling growth of microorganisms with brominated furanones” (Syracuse University, priority 2008, dated 2013).

What was measured:
C. albicans [1] = test: C. albicans specific growth rate in a shake flask (data not shown); type: cell-based, Candida albicans; settings: 3 μg/mL, after 3 hours of treatment
[2] = tested on: six fungal strains (Gloeophyllum trabeum, Chaetomium globosum, Trametes versicolor); test: Fungal growth on MEA plates with furanone, statements for all six strains; type: cell-based; settings: 1 to 60 μg/mL
Description: This Example examines the effect of brominated furanones on the growth of fungi associated with damage to building material. Six fungal strains were the subject of these experiments; Gloeophyllum trabeum (strains GT598 and GT599), Chaetomium globosum (wildtype strain and CG572), and Trametes versicolor (strains TV7B2-59 and TV57MAD277). The species were developed on 2% Malt-Extract Agar (MEA) plates and stored inverted at 4° C. The stocks were refreshed by streaking new plates every two months.
The brominated and non-brominated furanones were added to MAE agar plates at different concentrations. The brominated furanones were dissolved in either ethanol (“EtOH”) or methanol (“MeOH”) as stock solutions, as shown in Table 5. The non-brominated furanones were purchased from Sigma (St. Louis, Mo.). The furanone stocks were stored at 4° C.
MAE agar plates containing the same amounts of ethanol/methanol were also prepared as negative controls to eliminate any solvent effects. The plates were prepared using either 90 mm or 60 mm petri dishes and were stored inverted at 4° C. until use.
Different concentrations of furanones were studied to compare their antifungal activities. The plates were inoculated with the six fungal strains using a platinum loop and were incubated upside down at 30° C. for 7 days to monitor the growth. The initial screening was performed using a single 60 μg/mL furanone concentration.

[3] = tested on: orf19.2175 (CPD1) expression in C. albicans; test: RNA dot blotting of C. albicans genes after BF1 treatment; type: cell-based, Candida albicans; settings: 3 μg/mL BF1
Description: To corroborate the microarray results, four genes were checked with RNA dot blotting for their expression levels under the same conditions tested in microarray analysis: orf19.5604 (MDR1), orf19.2175 (CPD1), orf19.2896 (SOU1) and orf19.5565. The total RNA of a control sample without furanone was used to synthesize complementary DNA (cDNA) using OneStep RT-PCR Kit (QIAGEN Inc.) by following the manufacture's protocol. The annealing temperature was optimized based on the primers and was performed at 50° C. for 1 minute in each cycle. The length of the template cDNA was 457 bp, 364 bp, 455 bp and 423 bp for orf19.5604 (MDR1), orf19.2175 (CPD1), orf19.2896 (SOU1) and orf19.5565, respectively.
The DNA probes labeled with Digoxigenin (DIG)-dUTP were then generated using the same primer sets and PCR DIG Probe Synthesis Kit (Roche® Applied Science, Mannheim, Germany) by following the manufacture's protocol except that the annealing temperature was 48° C. for orf19.2175 and orf19.5565, and 51° C. for orf19.2896 and orf19.5604. Total RNA was isolated from cultures treated under the same conditions as in DNA microarray experiments. […] The light signal was recorded using Biomax X-ray films from Kodak (Rochester, N.Y.). […]

C. albicans [4] = test: C. albicans viability assay based on colony-forming unit (CFU) counting; type: cell-based, Candida albicans; settings: 60 μg/mL, 6 hours in 0.85% NaCl buffer
Description: To further examine the effect of brominated furanones on fungal growth and understand whether BFs are fungicidal agents to C. albicans, BF1 was used as the representative compound in a viability assay based on colony-forming unit (“CFU”) counting. An overnight culture of C. albicans was sub-cultured in 100 mL of SD medium to an initial OD600 of 0.005 and was grown for 24 hours. The cells were then harvested by centrifugation at 4,500 rpm for 5 minutes at room temperature and washed twice with 0.85% NaCl buffer. Then the cells were resuspended in 0.85% NaCl buffer and supplemented with 0, or 60 μg/mL BF1, BF8, BF9, BF10, BF11, BF12, or BF14 to an OD600 of 2.0 using 17×100-mm polystyrene test tubes (Fisher Scientific). After incubation at 30° C. for 6 hours with shaking at 200 rpm, the treated cells were spread on Yeast Extract Peptone Dextrose (YPD) plates containing 20 g/L peptone, 10 g/L yeast extract, 20 g/L dextrose and 15 g/L agar. The colony-forming units (CFUs) on the plates were counted after 24 hours of incubation at 30° C. to evaluate the killing of C. albicans by furanones. Duplicate samples for each furanone were tested and five agar plates were counted for each sample.

Structure (SMILES)	reduction of specific growth rate (C. albicans [1])	growth inhibition of the six fungal strains, comparison [2]	induction of gene CPD1 in RNA dot blotting [3]	reduction of CFU (C. albicans [4])
CCCCC1=C(Br)/C(=C/Br)OC1=O [BF1, 4-bromo-5Z-(bromomethylene)-3-butylfuran-2-one]	approximately 50%	effective at preventing growth in low concentrations	10 fold	
CC1=C(Br)/C(=C/Br)OC1=O [BF8, 4-bromo-5Z-(bromomethylene)-3-methylfuran-2-one]				50%
O=C1OC(=C(Br)Br)C=C1C(Br)Br [BF10, 3-(dibromomethyl)-5-(dibromomethylene)furan-2-one]				100%
